# Experimental data: US5328900A, “Anti-thrombotic peptide and pseudopeptide derivatives” (Rhone-Poulenc Rorer Pharmaceuticals Inc., priority 1992, dated 1994)
# Where a SMILES comes first, the peptide text is derived from it. [ ]: non-standard residue; d: D form. Aze = O=C(O)[C@@H]1CCN1; Inp = O=C(O)C1CCNCC1
# Tests used:
# [1] = target: T1, fibrinogen binding to thrombin-stimulated platelets (Homo sapiens, UniProt P05106+P08514); assay: Inhibition of radiolabeled (125I) fibrinogen binding assay
# T1 construct: endogenous in cells; host or cells: washed platelets stimulated with human alpha-thrombin
# T1 sequence (P08514 32-887 limits assumed): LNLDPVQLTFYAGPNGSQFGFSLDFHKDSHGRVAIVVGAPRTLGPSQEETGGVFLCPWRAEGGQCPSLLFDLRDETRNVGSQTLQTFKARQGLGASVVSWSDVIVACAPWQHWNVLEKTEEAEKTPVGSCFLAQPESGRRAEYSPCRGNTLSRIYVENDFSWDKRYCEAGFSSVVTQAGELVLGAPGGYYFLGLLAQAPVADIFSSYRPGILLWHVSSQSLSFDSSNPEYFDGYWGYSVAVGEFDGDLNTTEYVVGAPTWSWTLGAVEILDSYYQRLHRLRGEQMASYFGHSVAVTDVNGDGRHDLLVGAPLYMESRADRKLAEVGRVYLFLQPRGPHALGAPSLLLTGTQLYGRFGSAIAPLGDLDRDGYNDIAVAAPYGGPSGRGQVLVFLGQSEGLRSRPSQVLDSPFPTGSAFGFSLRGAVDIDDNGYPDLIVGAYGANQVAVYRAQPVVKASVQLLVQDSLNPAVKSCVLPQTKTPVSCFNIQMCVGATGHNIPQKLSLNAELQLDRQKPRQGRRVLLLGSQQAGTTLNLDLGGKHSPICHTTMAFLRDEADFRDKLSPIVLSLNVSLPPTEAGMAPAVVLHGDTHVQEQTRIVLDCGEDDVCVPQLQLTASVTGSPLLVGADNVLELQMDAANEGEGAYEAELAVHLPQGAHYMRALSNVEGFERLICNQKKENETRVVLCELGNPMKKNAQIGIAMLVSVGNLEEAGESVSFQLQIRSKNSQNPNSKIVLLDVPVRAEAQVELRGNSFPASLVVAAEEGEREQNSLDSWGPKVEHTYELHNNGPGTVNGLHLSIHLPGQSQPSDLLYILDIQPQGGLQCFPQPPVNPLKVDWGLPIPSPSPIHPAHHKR
# T1 sequence (P08514 891-1039 partner limits assumed): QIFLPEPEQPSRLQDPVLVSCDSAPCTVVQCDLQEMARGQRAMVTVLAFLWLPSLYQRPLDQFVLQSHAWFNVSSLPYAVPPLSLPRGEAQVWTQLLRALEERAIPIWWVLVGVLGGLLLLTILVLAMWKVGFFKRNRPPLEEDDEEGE
# T1 sequence (P05106 27-788): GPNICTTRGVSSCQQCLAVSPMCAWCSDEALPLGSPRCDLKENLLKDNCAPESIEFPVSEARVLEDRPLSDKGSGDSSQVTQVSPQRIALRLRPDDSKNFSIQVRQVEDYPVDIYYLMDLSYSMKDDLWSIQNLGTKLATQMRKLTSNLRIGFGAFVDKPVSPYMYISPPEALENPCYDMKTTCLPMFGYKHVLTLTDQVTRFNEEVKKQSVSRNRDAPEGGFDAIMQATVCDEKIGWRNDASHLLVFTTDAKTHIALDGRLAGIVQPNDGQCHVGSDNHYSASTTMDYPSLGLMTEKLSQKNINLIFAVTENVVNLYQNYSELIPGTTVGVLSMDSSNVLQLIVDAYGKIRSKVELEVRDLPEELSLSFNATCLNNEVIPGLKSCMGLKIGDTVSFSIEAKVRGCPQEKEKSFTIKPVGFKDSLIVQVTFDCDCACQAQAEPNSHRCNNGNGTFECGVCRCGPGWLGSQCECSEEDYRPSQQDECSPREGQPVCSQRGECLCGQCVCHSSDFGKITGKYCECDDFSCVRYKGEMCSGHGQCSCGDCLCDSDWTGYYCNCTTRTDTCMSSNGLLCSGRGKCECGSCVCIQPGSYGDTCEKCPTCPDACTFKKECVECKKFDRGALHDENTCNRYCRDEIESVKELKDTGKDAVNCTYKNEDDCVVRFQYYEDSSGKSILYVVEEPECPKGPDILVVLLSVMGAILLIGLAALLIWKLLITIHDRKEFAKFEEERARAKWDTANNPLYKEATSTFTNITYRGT
# Procedure: I. Inhibition of Radiolabeled (^125 I) Fibrinogen Binding Assay, which is essentially based on the method described in Proc. Natl. Acad. Sci. USA Vol. 83, pp. 5708-5712, August 1986, and is as follows.
# Platelets are washed free of plasma constituents by the albumin density-gradient technique. In each experimental mixture platelets in modified Tyrode's buffer are stimulated with human α-thrombin at 22°-25° C. for 10 minutes (3.125×10" platelets per liter and thrombin at […]). Hirudin is then added at a 25-fold excess for 5 minutes before addition of the radiolabeled ligand and any competing ligand. After these additions, the final platelet count in the mixture is 1×10"/liter. After incubation for an additional 30 minutes at 22°-25° C., bound and free ligand are separated by centrifuging 50 μl of the mixture through 300 μl of 20% sucrose at 12,000×g for 4 minutes. The platelet pellet is then separated from the rest of the mixture to determine platelet-bound radioactivity. Nonspecific binding is measured in mixtures containing an excess of unlabeled ligand. When binding curves are analyzed by Scatchard analysis, nonspecific binding is derived as a fitted parameter from the binding isotherm by means of a computerized program. […]
# Human platelets = assay: Inhibition of fibrinogen-mediated platelet aggregation; assay type: cell-based; conditions: for IC50: thrombin-activated human platelets, rate of aggregation
# Procedure: II. Inhibition of Fibrinogen-Mediated Platelet Aggregation, which is essentially based on the method described in Blood, Vol. 66, No. 4, October 1985, pp. 946-952, and is as follows.
# Human platelets were isolated from freshly drawn whole blood and were suspended in 0.14 mol/L NaCl, 2.7 mmol/L […], 12 mmol/L NaHCO3, 0.42 mmol/L Na2 HPO4, 0.55 mmol/L glucose, and 5 mmol/L Hepes, pH 7.35 at 2×10^8 platelets/ml. The suspension was incubated at 37° C. An aliquot of 0.4 ml of platelet suspension was activated by human thrombin at a final concentration of 2 μg/ml of thrombin for one minute. After one minute the reaction was stopped by a thrombin inhibitor. Serial dilution of the compound being tested was then added to the activated platelet, the reaction was allowed to proceed for one minute, followed by the addition of human fibrinogen at a final concentration of […] of fibrinogen. Platelet aggregation was then recorded by an aggregometer. Rate of aggregation was used to calculate IC50.
Structure (SMILES),"Inhibition of 125I-fibrinogen binding, extent at 25 μM ([1]; 25 μM) [%]",Inhibition of Fibrinogen Mediated Platelet Aggregation % inhibition at 25 μM (Human platelets) [%],IC50 (Human platelets) [µM],"IC50 ([1]; thrombin-stimulated washed platelets, 125I-fibrinogen 0.176 μmol/liter) [µM]"
CC(C)[C@H](NC(=O)[C@H](CC(=O)O)NC(=O)[C@@H]1CCN1C(=O)C1CCN(C(=N)N)CC1)C(=O)O [N-[2(S)-1-(amidinopiperidin-4-yl-carbonyl)-azetidin-2-yl-carbonyl]-L-aspartyl-L-valine],15,15,> 200,
CC(C)[C@H](NC(=O)[C@H](CC(=O)O)NC(=O)[C@@H]1CCN1C(=O)C1CCNCC1)C(=O)O [N-[2(S)-1-(piperidin-4-yl-carbonyl)azetidin-2-yl-carbonyl]-L-aspartyl-L-valine] (H-[Inp][Aze]DV-OH),,47,29.6,> 64
